Assay results: patent US5789434A, “Derivatives of substituted 4-biarylbutyric acid as matrix metalloprotease inhibitors” (priority 1995, dated 1998)
pIC50: −log10 of the molar value.

What was measured:
Format in all cases: biochemical
[1] = target: T1, MMP-3 (Homo sapiens, UniProt P08254); assay: Automated MMP Profiling Assay, MMP-3 fluorogenic; details: for pIC50: 96-well automated, P218
T1 construct: Truncated Prostromelysin-257 was expressed in a soluble form in E.coli; made in house; host or cells: E. coli
Text: This assay with each invention compound was run with the three enzymes MMP-3, MMP-9 and MMP-2 in parallel as adapted for a 96-well microtitre plate using a Hamilton A® workstation.

[2] = target: T2, MMP-9 (Homo sapiens, UniProt P14780); assay: Automated MMP Profiling Assay, MMP-9 fluorogenic; details: for pIC50: 96-well automated, P218
T2 construct: from tissue; host or cells: human polymorphonuclear leukocytes (PMN) from whole blood (New York Blood Center), PMA-stimulated supernatant

[3] = target: T3, MMP-2 (Homo sapiens, UniProt P08253); assay: Automated MMP Profiling Assay, MMP-2 fluorogenic; details: for pIC50: 96-well automated, P218, read-out: MMP-2 Fluorogenic IC50 (profiling)
T3 sequence (P08253 110-660): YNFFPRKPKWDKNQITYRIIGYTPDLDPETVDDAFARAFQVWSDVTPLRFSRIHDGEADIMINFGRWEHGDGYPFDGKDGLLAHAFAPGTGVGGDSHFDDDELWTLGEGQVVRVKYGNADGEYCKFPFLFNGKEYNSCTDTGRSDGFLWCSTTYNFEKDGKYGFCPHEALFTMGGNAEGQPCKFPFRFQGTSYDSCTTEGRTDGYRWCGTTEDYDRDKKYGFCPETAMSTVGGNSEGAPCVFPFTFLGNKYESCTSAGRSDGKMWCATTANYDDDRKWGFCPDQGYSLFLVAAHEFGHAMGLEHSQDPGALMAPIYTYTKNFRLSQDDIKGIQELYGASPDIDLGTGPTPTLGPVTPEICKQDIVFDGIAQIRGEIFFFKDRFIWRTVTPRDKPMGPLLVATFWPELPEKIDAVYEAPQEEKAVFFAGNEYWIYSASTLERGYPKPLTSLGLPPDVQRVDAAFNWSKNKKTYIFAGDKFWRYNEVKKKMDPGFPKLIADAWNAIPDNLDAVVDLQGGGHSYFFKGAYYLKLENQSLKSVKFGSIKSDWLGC

T1 sequence (P08254 100-274 limits assumed): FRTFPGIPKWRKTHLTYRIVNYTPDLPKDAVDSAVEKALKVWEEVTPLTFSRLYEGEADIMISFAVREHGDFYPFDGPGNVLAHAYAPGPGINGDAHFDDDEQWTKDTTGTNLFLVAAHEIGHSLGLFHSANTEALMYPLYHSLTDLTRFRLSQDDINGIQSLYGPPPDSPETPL
T2 sequence (P14780 107-707 limits assumed): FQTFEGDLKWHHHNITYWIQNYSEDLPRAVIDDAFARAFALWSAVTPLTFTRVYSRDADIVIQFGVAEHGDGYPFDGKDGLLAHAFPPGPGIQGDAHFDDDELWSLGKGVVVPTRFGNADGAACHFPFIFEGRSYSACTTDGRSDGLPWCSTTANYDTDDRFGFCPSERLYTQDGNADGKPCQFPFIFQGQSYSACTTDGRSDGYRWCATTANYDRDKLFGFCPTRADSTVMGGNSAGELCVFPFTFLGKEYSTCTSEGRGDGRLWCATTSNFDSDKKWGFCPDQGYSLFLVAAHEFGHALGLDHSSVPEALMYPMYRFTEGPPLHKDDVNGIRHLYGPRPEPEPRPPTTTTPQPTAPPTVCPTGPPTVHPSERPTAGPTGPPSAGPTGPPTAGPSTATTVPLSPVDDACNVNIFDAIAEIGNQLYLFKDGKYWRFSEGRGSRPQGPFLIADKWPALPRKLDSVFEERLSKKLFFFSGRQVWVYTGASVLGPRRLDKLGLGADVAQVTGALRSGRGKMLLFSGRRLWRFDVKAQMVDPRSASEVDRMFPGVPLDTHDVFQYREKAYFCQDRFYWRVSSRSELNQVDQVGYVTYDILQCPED

| SMILES | pIC50 [1] | pIC50 [2] | pIC50 [3] | inhibition at 5 µM [1] | inhibition at 5 µM [2] | inhibition at 5 µM ([3]; at 5 μM) |
| --- | --- | --- | --- | --- | --- | --- |
| O=C(O)c1ccc(COc2ccc(-c3ccc(C(=O)CC(CCCc4ccccc4)C(=O)O)cc3)cc2)cc1 (stereo not drawn) [Example 113] | 7.55 | 5.88 | 7.36 |  |  |  |
| COC(=O)c1ccccc1C(=O)OC[C@@H]1CC[C@H](C(=O)c2ccc(-c3ccc(Cl)cc3)cc2)[C@H]1C(=O)O (relative stereo) [Example 368] | 7.44 | 7.52 | 7.51 |  |  |  |
| O=C(CC(CCc1ccccc1)C(=O)O)c1ccc(-c2ccc(OCc3ccccc3)cc2)cc1 (stereo not drawn) [Example 161, [1,1'-Biphenyl]-4-butanoic acid, γ-oxo-α-(2-phenylethyl)-4'-(phenylmethoxy)-] | 7.34 | 5.81 | 7.42 |  |  |  |
| O=C(CC(CCc1ccccc1)C(=O)O)c1ccc(-c2ccc(O)cc2)cc1 (stereo not drawn) [Example 155, [1,1'-Biphenyl]-4-butanoic acid, 4'-hydroxy-γ-oxo-α-(2-phenylethyl)-] | 6.11 | < 5.90 | 7.30 |  |  |  |
| CCCCCCc1ccc(-c2ccc(CCC(CCCc3ccccc3)C(=O)O)cc2)cc1 (stereo not drawn) [Example 357, [1,1'-Biphenyl]-4-butanoic acid, 4'-hexyl-α-(3-phenylpropyl)-] |  |  |  | 15% | 4% | 38% |
| CC(C)(C)c1ccc2c(c1)C(=O)N(CCC(CC(=O)c1ccc(-c3ccc(Cl)cc3)cc1)C(=O)O)C2=O (stereo not drawn) [Example 414, 2H-Isoindole-2-butanoic acid, α-[2-(4'-chloro[1,1'-biphenyl]-4-yl)-2-oxoethyl]-5-(1,1-dimethylethyl)-1,3-dihydro-1,3-dioxo-] | 7.43 | 7.82 | 7.10 |  |  |  |
| O=C(CC(CCc1ccccc1C(=O)O)C(=O)O)c1ccc(-c2ccc(Cl)cc2)cc1 (stereo not drawn) [Example 143, [1,1'-Biphenyl]-4-butanoic acid, α-[2-(2-carboxyphenyl)ethyl]-4'-chloro-γ-oxo-] | 6.51 | 5.85 | 6.95 |  |  |  |
| COC/C=C\c1ccc(-c2ccc(C(=O)CC(CCCc3ccccc3)C(=O)O)cc2)cc1 (stereo not drawn) [Example 354, [1,1'-Biphenyl]-4-butanoic acid, 4'-(3-methoxy-1-propenyl)-γ-oxo-α-(3-phenylpropyl)-, (Z)-] | 6.24 | 5.77 | 7.12 |  |  |  |
| CCN(CC)C(=O)c1ccc(CCC(CC(=O)c2ccc(-c3ccc(Cl)cc3)cc2)C(=O)O)cc1 (stereo not drawn) [Example 151, [1,1'-Biphenyl]-4-butanoic acid, 4'-chloro-α-[2-[4-[(diethylamino)carbonyl]phenyl]ethyl]-γ-oxo-] | 6.43 | 6.22 | 7.15 |  |  |  |
| CC(C)(C)CC(=O)Nc1ccc(-c2ccc(C(=O)CC(CCc3ccccc3)C(=O)O)cc2)cc1 (stereo not drawn) [Example 141, [1,1'-Biphenyl]-4-butanoic acid, 4'-[(3,3-dimethyl-1-oxobutyl)amino]-γ-oxo-α-(2-phenylethyl)-] | > 5.30 |  | 5.93 |  | 0% |  |
| CC(=O)O[C@H]1C[C@@H](C(=O)c2ccc(-c3ccc(Cl)cc3)cc2)[C@H]1C(=O)O (relative stereo) [Example 393, Cyclobutanecarboxylic acid, 2-(acetyloxy)-4-[(4'-chloro[1,1'-biphenyl]-4-yl)carbonyl]-, (1α,2α,4α)-] |  |  | 5.70 | 18% | 38% |  |
| CCCCC#Cc1ccc(-c2ccc(C(=O)CC(CCCc3ccccc3)C(=O)O)cc2)cc1 (stereo not drawn) [Example 352, [1,1'-Biphenyl]-4-butanoic acid, 4'-(1-hexynyl)-γ-oxo-α-(3-phenylpropyl)-] | 6.89 | 6.04 | 7.21 |  |  |  |
| O=C(O)[C@H]1[C@H](CSCc2ccccc2)CC[C@@H]1C(=O)c1ccc(-c2ccc(Cl)cc2)cc1 (relative stereo) [Example 372, Cyclopentanecarboxylic acid, 2-[(4'-chloro[1,1'-biphenyl]-4-yl)carbonyl]-5-[[(phenylmethyl)thio]methyl]-, (1α,2β,5β)-] | 7.41 | 7.19 | 7.66 |  |  |  |
| O=C(c1ccc(-c2ccc(Cl)cc2)cc1)C1CCC(Sc2ccccc2)C1C(=O)O (stereo not drawn) [Example 312, Cyclopentanecarboxylic acid, 2-[(4'-chloro[1,1'-biphenyl]-4-yl)carbonyl]-5-(phenylthio)-, (1α,2β,5α)-] | 7.10 | 6.06 | 7.22 |  |  |  |
| CCCCCOc1ccc(-c2ccc(C(=O)CC(CCc3cccc(C(=O)N(CC)CC)c3)C(=O)O)cc2)cc1 (stereo not drawn) [Example 164, [1,1'-Biphenyl]-4-butanoic acid, α-[2-[3-[(diethylamino)carbonyl]phenyl]ethyl]-γ-oxo-4'-(pentyloxy)-] | 7.52 | 7.09 | 8.41 |  |  |  |
| O=C(CC(CCN1C(=O)c2ccccc2C1=O)C(=O)O)c1ccc(-c2ccc(OCc3ccccc3)cc2)cc1 (stereo not drawn) [Example 271, 2H-Isoindole-2-butanoic acid, 1,3-dihydro-1,3-dioxo-α-[2-oxo-2-[4'-(phenylmethoxy)[1,1'-biphenyl]-4-yl]ethyl]-] | 8.28 | 8.10 | 8.85 |  |  |  |
| O=C(CC(CCN1C(=O)c2cc3ccccc3cc2C1=O)C(=O)O)c1ccc(-c2ccc(Cl)cc2)cc1 (stereo not drawn) [Example 409, 2H-Benz[.function.]isoindole-2-butanoic acid, α-[2-(4'-chloro[1,1'-biphenyl]-4-yl)-2-oxoethyl]-1,3-dihydro-1,3-dioxo-] | 7.91 | 8.72 | 7.52 |  |  |  |
| O=C(CC(CCCc1ccccc1)C(=O)O)c1ccc(-c2ccc(OCc3ccc(C(F)(F)F)cc3)cc2)cc1 (stereo not drawn) [Example 104, [1,1'-Biphenyl]-4-butanoic acid, γ-oxo-α-(3-phenylpropyl)-4'-[[4-(trifluoromethyl)phenyl]methoxy]-] | 6.90 |  | 7.20 |  | 18% |  |
| O=C(O)c1ccccc1S[C@H]1CC[C@H](C(=O)c2ccc(-c3ccc(Cl)cc3)cc2)[C@H]1C(=O)O (relative stereo) [Example 301, Benzoic acid, 2-[[2-carboxy-3-[(4'-chloro[1,1'-biphenyl]-4-yl)carbonyl]cyclopentyl]thio]-, [1S-(1α,2α,3β)]-] | 7.52 | 6.54 | 7.74 |  |  |  |
| COc1ccc2c(c1)C(=O)N(CCC(CC(=O)c1ccc(-c3ccc(Cl)cc3)cc1)C(=O)O)C2=O (stereo not drawn) [Example 422, 2H-Isoindole-2-butanoic acid, α-[2-(4'chloro[1,1'-biphenyl]-4-yl)-2-oxoethyl]-1,3-dihydro-5-methoxy-1,3-dioxo-] | 8.08 | 8.80 | 7.85 |  |  |  |
| Cc1ccc(COc2ccc(-c3ccc(C(=O)CC(CCCc4ccccc4)C(=O)O)cc3)cc2)cc1 (stereo not drawn) [Example 103, [1,1'-Biphenyl]-4-butanoic acid, 4'-[(4-methylphenyl)methoxy]-γ-oxo-α-(3-phenylpropyl)-] | 7.24 |  | 7.52 |  | 28% |  |
| CC(=O)O[C@@H]1C[C@@H](C(=O)c2ccc(-c3ccc(Cl)cc3)cc2)[C@H]1C(=O)O (relative stereo) [Example 394, Cyclobutanecarboxylic acid, 2-(acetyloxy)-4-[(4'-chloro[1,1'-biphenyl]-4-yl)carbonyl]-, (1α,2β,4α)-] |  |  | 5.70 | 26% | 15% |  |
| O=C(CC(CCc1cccc(I)c1)C(=O)O)c1ccc(-c2ccc(OCc3ccccc3)cc2)cc1 (stereo not drawn) [Example 163, [1,1'-Biphenyl]-4-butanoic acid, α-[2-(3-iodophenyl)ethyl]-γ-oxo-4'-(phenylmethoxy)-] | 7.19 |  | 7.77 |  | 18% |  |
| O=C(NC[C@@H]1CC[C@H](C(=O)c2ccc(-c3ccc(Cl)cc3)cc2)[C@H]1C(=O)O)c1ccccc1 (relative stereo) [Example 370, Cyclopentanecarboxylic acid, 2-[(benzoylamino)methyl]-[(4'-chloro[1,1'-biphenyl]-4-yl)carbonyl]-, (1α,2β,5β)-] | 7.62 | 7.59 | 8.06 |  |  |  |
| O=C(O)[C@H]1[C@H](CN2C(=O)c3cccc([N+](=O)[O-])c3C2=O)CC[C@@H]1C(=O)c1ccc(-c2ccc(Cl)cc2)cc1 (relative stereo) [Example 385, Cyclopentanecarboxylic acid, 2-[(4'-chloro[1,1'-biphenyl]-4-yl)carbonyl]-5-[(1,3-dihydro-4-nitro-1,3-dioxo-2H-isoindol-2-yl)methyl]-, (1α,2β,5β)-] | 8.37 | 8.95 | 8.37 |  |  |  |
| CCN(CC)C(=O)c1cccc(CCC(CC(=O)c2ccc(-c3ccc(Cl)cc3)cc2)C(=O)O)c1 (stereo not drawn) [Example 144, 4-[4-(4-chlorophenyl)phenyl]-4-oxo-2-[2-(3-N,N-diethylcarbamoyl)phenyl]butanoic acid] | 7.82 | 7.54 | 8.47 |  |  |  |
